Experimental data reported in patent US12054487B2, “Muscarinic acetylcholine M1 receptor antagonists” (Contineum Therapeutics, Inc., priority 2018, dated 2024).
pIC50: −log10 of the molar value.

Assays:
Assay type in all cases: cell-based
[1] = molecular target: T1, human M1 receptor (Homo sapiens, UniProt P11229); experiment: In vitro functional assay of muscarinic acetylcholine receptor activity (aequorin calcium flux, antagonist mode vs EC80 acetylcholine), M1; conditions: CHO-K1 cells stably expressing human M1 receptor with Aequorin; decrease in EC80 acetylcholine response
T1 construct: host or cells: CHO-K1
T1 sequence (P11229 1-460): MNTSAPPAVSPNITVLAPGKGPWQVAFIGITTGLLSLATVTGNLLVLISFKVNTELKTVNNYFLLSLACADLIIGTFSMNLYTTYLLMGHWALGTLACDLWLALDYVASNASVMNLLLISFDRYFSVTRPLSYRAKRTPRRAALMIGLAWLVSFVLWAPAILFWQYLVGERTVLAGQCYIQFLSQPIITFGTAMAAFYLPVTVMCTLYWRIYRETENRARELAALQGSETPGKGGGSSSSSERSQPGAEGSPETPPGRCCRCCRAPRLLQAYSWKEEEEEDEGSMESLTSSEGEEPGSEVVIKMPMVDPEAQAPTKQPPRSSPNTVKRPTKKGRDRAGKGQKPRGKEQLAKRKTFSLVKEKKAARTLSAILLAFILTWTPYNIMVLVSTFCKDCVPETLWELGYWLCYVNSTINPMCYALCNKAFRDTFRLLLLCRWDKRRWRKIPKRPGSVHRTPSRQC
Description: (§1) CHO-K1 cells stably expressing human M1 receptor with Aequorin (Perkin Elmer) were grown in F12 media, 10% FBS with 0.4 mg/mL geneticin and […]. Cells were grown to confluence and frozen down to be assayed at a later date. On the day of the experiment cells were thawed in a 37° C. water bath, resuspended in DMEM/HAM's F12 with HEPES (Invitrogen)+0.1% protease-free BSA (assay buffer), and spun down to remove freezing media. After centrifugation, supernatant was removed and 12 mL of assay buffer was added. Coelenterazine h (Promega) was added to the cells at a final concentration of 5 uM and incubated for 4 hours at room temperature in the dark. Compound master plate-96 deep well (Corning) were formatted in a 8-point DRC in assay buffer with 0.2% DMSO at a starting concentration of 60 uM (2×). After 4 hours of incubation, cells were plated at a concentration of 5×10^5 cells/well in 96 well white-walled, tissue culture-treated, clear-bottom plates (VWR). Compounds were added to the daughter plate, and cells plus compound were incubated at room temperature for 30 minutes in the dark.
(§2) Calcium flux was measured using the FlexStation 3 (Molecular Devices). To measure the antagonist dose-response, the EC80 of Acetylcholine was injected to the daughter plate using the automated compound transfer function of the Flex Station, and the increase in luminescence was measured over time. Antagonist activity was analyzed as a concentration dependent decrease in the EC80 acetylcholine response. Dose response curves were generated using Prism (GraphPad Software). The IC50 of the compounds was calculated from the dose response curve.

[2] = molecular target: T2, M2 (Homo sapiens, UniProt P08172); experiment: In vitro functional assay of muscarinic acetylcholine receptor activity, M2; conditions: antagonist activity; M2 method not separately described
T2 sequence (P08172 1-466): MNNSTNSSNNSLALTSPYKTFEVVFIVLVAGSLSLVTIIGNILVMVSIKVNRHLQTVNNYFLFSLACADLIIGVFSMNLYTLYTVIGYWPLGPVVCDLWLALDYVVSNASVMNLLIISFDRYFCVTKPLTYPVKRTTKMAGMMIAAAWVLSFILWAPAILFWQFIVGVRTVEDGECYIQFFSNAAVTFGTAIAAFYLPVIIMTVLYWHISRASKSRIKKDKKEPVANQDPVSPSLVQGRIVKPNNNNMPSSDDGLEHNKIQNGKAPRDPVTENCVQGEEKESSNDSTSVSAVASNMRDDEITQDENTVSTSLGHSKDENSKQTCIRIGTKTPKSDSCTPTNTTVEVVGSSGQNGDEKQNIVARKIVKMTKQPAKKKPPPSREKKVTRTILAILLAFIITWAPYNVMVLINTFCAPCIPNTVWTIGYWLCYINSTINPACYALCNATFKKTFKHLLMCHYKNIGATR
Description: [The procedure below names another target; the source lists this target under the same test.] as §1, §2

[3] = molecular target: M3 (Homo sapiens, UniProt P20309); experiment: In vitro functional assay of muscarinic acetylcholine receptor activity, M3; conditions: antagonist activity; M3 method not separately described
Description: [The procedure below names another target; the source lists this target under the same test.] as §1, §2

Chain of M3 (P20309 whole entry): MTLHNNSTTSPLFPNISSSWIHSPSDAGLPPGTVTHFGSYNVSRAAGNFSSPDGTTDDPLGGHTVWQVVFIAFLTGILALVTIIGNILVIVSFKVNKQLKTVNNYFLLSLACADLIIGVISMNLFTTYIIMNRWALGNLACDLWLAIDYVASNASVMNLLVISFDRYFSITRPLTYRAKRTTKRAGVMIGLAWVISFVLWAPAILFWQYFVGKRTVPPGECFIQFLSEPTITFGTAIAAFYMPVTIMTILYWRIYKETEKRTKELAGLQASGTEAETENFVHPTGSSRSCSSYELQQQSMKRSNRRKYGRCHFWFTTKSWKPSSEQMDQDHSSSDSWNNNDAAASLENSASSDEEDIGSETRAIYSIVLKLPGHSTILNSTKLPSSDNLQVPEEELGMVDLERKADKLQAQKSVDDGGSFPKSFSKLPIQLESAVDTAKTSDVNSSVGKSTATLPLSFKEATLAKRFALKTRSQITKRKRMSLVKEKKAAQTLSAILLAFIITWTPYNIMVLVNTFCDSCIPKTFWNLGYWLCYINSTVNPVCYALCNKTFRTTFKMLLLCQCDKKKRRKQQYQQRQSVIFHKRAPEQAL

| SMILES | pIC50 [1] | pIC50 [2] | pIC50 [3] |
| --- | --- | --- | --- |
| O=C1C(CCCc2cccc3ncsc23)C[C@H]2CN(c3ccncc3F)CCN12 (mixture of isomers) [Example 9, (8aS)-7-(3-(benzo[d]thiazol-7-yl)propyl)-2-(3-fluoropyridin-4-yl)hexahydropyrrolo[1,2-a]pyrazin-6(2H)-one] | 6.00 to 7.00 | 5.00 to 6.00 | < 5.00 |
| O=C1C(CCCc2cccc3ncnn23)C[C@H]2CN(c3ccc(F)cn3)CCN12 (mixture of isomers) [Example 41, (7S,8aS)-7-(3-([1,2,4]triazolo[1,5-a]pyridin-5-yl)propyl)-2-(5-fluoropyridin-2-yl)hexahydropyrrolo[1,2-a]pyrazin-6(2H)-one] | > 7.00 | 5.00 to 6.00 | 5.00 to 6.00 |
| Cc1cc(N2CCN3C(=O)C(CCCc4cccc5ncnn45)C[C@H]3C2)ncc1F (mixture of isomers) [Example 42, (7S,8aS)-7-(3-([1,2,4]triazolo[1,5-a]pyridin-5-yl)propyl)-2-(5-fluoro-4-methylpyridin-2-yl)hexahydropyrrolo[1,2-a]pyrazin-6(2H)-one] | < 5.00 | 5.00 to 6.00 | < 5.00 |
| Cc1ncc(N2CCN3C(=O)C(CCCc4cccc5ncnn45)C[C@H]3C2)cc1F (mixture of isomers) [Example 43, (7S,8aS)-7-(3-([1,2,4]triazolo[1,5-a]pyridin-5-yl)propyl)-2-(5-fluoro-6-methylpyridin-3-yl)hexahydropyrrolo[1,2-a]pyrazin-6(2H)-one] | 5.00 to 6.00 | 5.00 to 6.00 | 5.00 to 6.00 |
| O=C1C(CCCc2cccc3ncnn23)C[C@H]2CN(c3cncc(Cl)c3)CCN12 (mixture of isomers) [Example 44, (8aS)-7-(3-([1,2,4]triazolo[1,5-a]pyridin-5-yl)propyl)-2-(5-chloropyridin-3-yl)hexahydropyrrolo[1,2-a]pyrazin-6(2H)-one] | 5.00 to 6.00 | 5.00 to 6.00 | < 5.00 |
| O=C1C(CCCc2cccc3ncnn23)C[C@H]2CN(c3ccc(C(F)F)cn3)CCN12 (mixture of isomers) [Example 46, (8aS)-7-(3-([1,2,4]triazolo[1,5-a]pyridin-5-yl)propyl)-2-(5-(difluoromethyl)pyridin-2-yl)hexahydropyrrolo[1,2-a]pyrazin-6(2H)-one] | > 7.00 | 5.00 to 6.00 | 5.00 to 6.00 |
| COc1ccc(N2CCN3C(=O)C(CCCc4cccn5ncnc45)C[C@H]3C2)nc1 (mixture of isomers) [Example 72, (7S,8aS)-7-(3-([1,2,4]triazolo[1,5-a]pyridin-8-yl)propyl)-2-(5-methoxypyridin-2-yl)hexahydropyrrolo[1,2-a]pyrazin-6(2H)-one] | > 7.00 | 5.00 to 6.00 | 5.00 to 6.00 |
| O=C1C(CCCc2cccc3ncsc23)CC2CN(c3ccncc3F)CCN12 (racemic) [Example 6, 7-(3-(benzo[d]thiazol-7-yl)propyl)-2-(3-fluoropyridin-4-yl)hexahydropyrrolo[1,2-a]pyrazin-6(2H)-one] | 6.00 to 7.00 | 5.00 to 6.00 | < 5.00 |
| O=C1C(CCCc2cccc3ncnn23)C[C@H]2CN(c3ccc(F)cn3)CCN12 (single isomer, unassigned) [Example 50] | 6.00 to 7.00 | < 5.00 | < 5.00 |
| O=C1[C@H](CCCc2cccc3ncsc23)C[C@H]2CN(c3ccncc3F)CCN12 [Example 1, (7R,8aS)-7-(3-(benzo[d]thiazol-7-yl)propyl)-2-(3-fluoropyridin-4-yl)hexahydropyrrolo[1,2-a]pyrazin-6(2H)-one] | < 5.00 | < 5.00 | < 5.00 |
| O=C1[C@@H](CCCc2cccc3ncsc23)C[C@H]2CN(c3ccncc3F)CCN12 [Example 2, (7S,8a5)-7-(3-(benzo [d]thiazol-7-yl)propyl)-2-(3-fluoropyridin-4-yl)hexahydropyrrolo[1,2-a]pyrazin-6(2H)-one] | > 7.00 | 5.00 to 6.00 | 5.00 to 6.00 |
| O=C1[C@@H](CCCc2cccc3nccn23)C[C@H]2CN(c3ccncc3F)CCN12 [Example 3, (7S,8aS)-2-(3-fluoropyridin-4-yl)-7-(3-(imidazo[1,2-a]pyridin-5-yl)propyl)hexahydropyrrolo[1,2-a]pyrazin-6(2H)-one] | 6.00 to 7.00 | < 5.00 | 5.00 to 6.00 |
| N#Cc1ccc(N2CCN3C(=O)[C@@H](CCCc4cccc5ncnn45)C[C@H]3C2)nc1 [Example 4, 6-((7S,8aS)-7-(3-([1,2,4]triazolo [1,5-a]pyridin-5-yl)propyl)-6-oxohexahydropyrrolo [1,2-a]pyrazin-2(1H)-yl)nicotinonitrile] | > 7.00 | 6.00 to 7.00 | 6.00 to 7.00 |
| N#Cc1ccc(N2CCN3C(=O)[C@@H](CNCc4cccc5ncnn45)C[C@H]3C2)nc1 [Example 5, 6-((7R,8aS)-7-((([1,2,4]triazolo[1,5-a]pyridin-5-ylmethyl)amino)methyl)-6-oxohexahydropyrrolo[1,2-a]pyrazin-2(1H)-yl)nicotinonitrile] | 6.00 to 7.00 | 5.00 to 6.00 | < 5.00 |
| O=C1[C@@H](CCCc2cccc3ncsc23)C[C@@H]2CN(c3ccncc3F)CCN12 [Example 7, (7S,8aR)-7-(3-(benzo[d]thiazol-7-yl)propyl)-2-(3-fluoropyridin-4-yl)hexahydropyrrolo[1,2-a]pyrazin-6(2H)-one] | 5.00 to 6.00 | 5.00 to 6.00 | < 5.00 |
| O=C1[C@H](CCCc2cccc3ncsc23)C[C@@H]2CN(c3ccncc3F)CCN12 [Example 8, (7R,8aR)-7-(3-(benzo[d]thiazol-7-yl)propyl)-2-(3-fluoropyridin-4-yl)hexahydropyrrolo[1,2-a]pyrazin-6(2H)-one] | < 5.00 | < 5.00 | < 5.00 |
| N#Cc1ccc(N2CCN3C(=O)[C@@H](CCCc4cccc5ncsc45)C[C@H]3C2)nc1 [Example 10, 6-((7S,8aS)-7-(3-(benzo[d]thiazol-7-yl)propyl)-6-oxohexahydropyrrolo[1,2-a]pyrazin-2(1H)-yl)nicotinonitrile] | > 7.00 | 6.00 to 7.00 | 5.00 to 6.00 |
| N#Cc1cc(N2CCN3C(=O)[C@@H](CCCc4cccc5ncsc45)C[C@H]3C2)ccn1 [Example 11, 4-((7S,8aS)-7-(3-(benzo[d]thiazol-7-yl)propyl)-6-oxohexahydropyrrolo[1,2-a]pyrazin-2(1H)-yl)picolinonitrile] | > 7.00 | 6.00 to 7.00 | 6.00 to 7.00 |
| O=C1[C@@H](CCCc2cccc3ncsc23)C[C@H]2CN(c3ccnc(Cl)c3)CCN12 [Example 12] | 6.00 to 7.00 | 5.00 to 6.00 | 5.00 to 6.00 |
| CS(=O)(=O)c1ccc(N2CCN3C(=O)[C@@H](CCCc4cccc5ncsc45)C[C@H]3C2)nc1 [Example 13, (7S,8aS)-7-(3-(benzo[d]thiazol-7-yl)propyl)-2-(5-(methylsulfonyl)pyridin-2-yl)hexahydropyrrolo[1,2-a]pyrazin-6(2H)-one] | > 7.00 | 6.00 to 7.00 | 6.00 to 7.00 |
| N#Cc1ccc(N2CCN3C(=O)[C@@H](CCCc4cccc5cncn45)C[C@H]3C2)nc1 [Example 14, 6-((7S,8aS)-7-(3-(imidazo[1,5-a]pyridin-5-yl)propyl)-6-oxohexahydropyrrolo[1,2-a]pyrazin-2(1H)-yl)nicotinonitrile] | 6.00 to 7.00 | 5.00 to 6.00 | 5.00 to 6.00 |
